In patent US20030083483A1, “Molecular interaction sites of vimentin RNA and methods of modulating the same” (priority 1999, published 2003):
Entries after “also recorded” stand apart in the source; their conditions may differ.

Experiments:
[1] = test system: 18S A site model; assay: ESI-FTICR mass spectrometric complex detection with 18S A-site model RNA; type: binding, eukaryotic; conditions: mixture of five aminoglycosides, 16S and 18S targets simultaneously
Experimental: Paromomycin, lividomycin (MW=761.354 Da), sisomicin (MW=447.269 Da), tobramycin (MW=467.2591 Da), and bekanamycin (MW=483.254 Da) were obtained from Sigma (St. Louis, Mo.) and ICN (Costa Mesa, Calif.) and were dissolved to generate 10 mM stock solutions. 2′ methoxy analogs of RNA constructs representing the prokaryotic (16S) rRNA and eukaryotic (18S) rRNA A-site were synthesized in house and precipitated twice from 1 M ammonium acetate following deprotection with ammonia (pH 8.5). The mass-tagged constructs contained an 18-atom mass tag (C12H2509) attached to the 5′-terminus of the RNA oligomer through a phosphodiester linkage.
All mass spectrometry experiments were performed using an Apex II 70e electrospray ionization Fourier transform ion cyclotron resonance mass spectrometer (Bruker Daltonics, Billerica) employing an actively shielded 7 tesla superconducting magnet. […]
Mass spectrometry experiments were performed in order to detect complex formation between a library containing five aminoglycosides (Sisomicin (Sis), Tobramycin (Tob), Bekanomycin (Bek), Paromomycin (PM), and Livodomycin (LV)) and two RNA targets simultaneously. Signals from the (M-5H+)^5− charge states of free 16S and 18S RNAs are detected at m/z 1801.515 and 1868.338, respectively. […]

[2] = test system: 27-mer RNA corresponding to the 16S rRNA A site containing 3 dA residues; assay: MS-MS CID/CAD protection assay on chimeric 27-mer RNA/DNA; type: binding, prokaryotic; conditions: same activation energy as free RNA
From the text: In order to study the binding of paromomycin to the RNA of Example 20, the chimeric RNA/DNA molecule of Example 20 was synthesized using standard automated nucleic acid synthesis protocols on an automated synthesizer. A sample of this nucleic acid was then subjected to ESI followed by CID in a mass spectrometer to afford the fragmentation pattern indicating a lack of structure at the sites of dA incorporation, as described in Example 20. This indicated the accessibility of these dA sites in the structure of the chimeric nucleic acid.
Next, another sample of the chimeric nucleic acid was treated with a solution of paromomycin and the resulting mixture analyzed by ESI followed by CID using a mass spectrometer. […] This was also indicative of binding of the paromomycin to the chimeric nucleic acid, because of the increased mass of the observed ion complex. Further, there was also observed, a shift in the distribution of the multiply charged ion complexes which reflected a change in the conformation of the nucleic acid in the paromomycin-nucleic acid complex into a more compact structure. […]
The mass spectrum obtained from a 5 μM solution of C mixed with 125 nM paromomycin contains [M-5H]^5− ions from free C at m/z 1783.6 and the [M-5H]^5− ions of the paromomycin-C complex at m/z 1907.3. […] Signals from the [M-4H]^4− ions of C and the complex are detected at m/z 2229.8 and 2384.4, respectively. […]

## NC[C@@H]1O[C@H](O[C@H]2[C@@H](O)[C@H](O[C@@H]3[C@@H](O)[C@H](N)C[C@H](N)[C@H]3O[C@H]3O[C@H](CO)[C@@H](O)[C@H](O)[C@H]3N)O[C@@H]2CO)[C@H](N)[C@@H](O)[C@@H]1O [Paromomycin]
[1]
  complexes with the 18S A site model: absence
[2]
  fragmentation at the dA sites of the ligand-RNA complex on CID/CAD: no fragmentation at the dA sites; also recorded: No cleavage was found to occur; also recorded: No significant fragment ions are observed; also recorded: no fragment ions are detected
